The values that follow come from patent US8309685B2 (Celgene Avilomics Research, Inc., priority 2007, dated 2012).

Like-named read-outs stand apart in the source and are kept apart here.

Test [1] addresses T1, A156T mutant of the HCV NS3/4A 1b protease enzyme (Hepatitis C virus genotype 1b, UniProt P26663, A1182T).
T1 construct: 10× stocks of NS3/4A protease enzyme from Bioenza (Mountain View, Calif.); purchased Bioenza (Mountain View, Calif.)
As to the kind of experiment: HCV Protease FRET Assay (IC50), A156T mutant. The test is classed as biochemical.

Test [2] has as its target HCV NS3/4A protease (UniProt Q9WMX2). The test is described as follows: Method B: HCV Protease Assay using FRET Methodology. Further details: species or system Hepatitis C virus. An excerpt: Method B: HCV Protease Assay using FRET Methodology
A quantitative, fluorescence resonance energy transfer (FRET)-based methodology was employed to identify HCV NS3/4A protease inhibitors. The assay employed a synthetic FRET peptide, derived from the HCV NS5A/5B cleavage site, with the HCV protease to evaluate the activity of compounds against the protease by monitoring the cleavage activity of the complex. A synthetic peptide which encompasses the NS5A-5B junction (NH2-EDVVCCSMSYK-COOH) was labeled with Dabcyl and Edans at N- and C-termini, respectively (Invitrogen, Carlsbad, Calif.). Fluorescence measurement was used to estimate the IC50 value of the test compound. […] Upon cleavage of the FRET peptide by HCV NS3/4A proteinase complex (100 ng/mL), the fluorescence is recovered and can be continuously monitored at excitation/emission=340/490 nm.

Test [3] addresses T2, wild type HCV NS3/4A 1b protease enzyme (Hepatitis C virus genotype 1b, UniProt P26663).
T2 construct: 10× stocks of NS3/4A protease enzyme from Bioenza (Mountain View, Calif.); purchased Bioenza (Mountain View, Calif.)
The test is described as follows: HCV Protease FRET Assay (IC50_APP), wild type. The test is classed as biochemical. The conditions noted are these: read-out: IC50_APP, WT; apparent IC50, wild type NS3/4A 1b.

Test [4] addresses T3, HCV NS3/4A wild type (genotype 1b) (Hepatitis C virus genotype 1b, UniProt P26663).
T3 construct: mass spectroscopic analysis of HCV NS3/4A wild-type protease domain; purchased Bioenza Calif
As to the kind of experiment: Mass spectrometric analysis (MALDI-TOF) of covalent modification, HCV wild type. Format: binding. The following applies: 10-fold excess of compound to protein, 3 hrs. How it is done: Mass spectrometric analysis of HCV wild type or HCV variant C159S in the presence of test compound was performed. 100 pmols of HCV wild type (Bioenza Calif.) was incubated with compound for 1 hr and 3 hrs at 10-fold access of […] to protein. 1 ul aliquots of the samples (total volume of 4.24 ul) were diluted with 10 ul of 0.1% TFA prior to micro C4 ZipTipping directly onto the MALDI target using Sinapinic acid as the desorption matrix (10 mg/ml in 01% TFA:Acetonitrile 50:50). Analyses were performed on a Shimadzu Biotech Axima TOF^2 (Shimadzu Instruments) matrix-assisted-laser desorption/ionization Time-of-Flight (MALDI-TOF) mass spectrometer. The same procedure was carried out on 100 pmols of HCV C159S mutant of HCV protease for 3 hrs at 10-fold excess of (I-3) to protein.
As depicted in FIGS. 2, 3, 4, and 5, mass spectrometric analysis of HCV wild type or HCV mutants in the presence of test compound (I-3) was performed. […] 1 ul aliquots of the samples were diluted with 10 ul of 0.1% TFA prior to micro C4 ZipTipping directly onto the MALDI target using Sinapinic acid as the desorption matrix (10 mg/ml in 0.1% TFA:Acetonitrile 50:50).
Mass spectrometric analysis of HCV wild type (genotype 1b) in the presence of test compounds I-73 and I-75 was performed using the following protocol: HCV NS3/4A wild type (wt) was incubated for 1 hr at a 10× fold access of test compound to protein. 2 ul aliquots of the samples were diluted with 10 ul of 0.1% TFA prior to micro C4 ZipTipping directly onto the MALDI target using Sinapinic acid as the desorption matrix (10 mg/ml in 0.1% TFA:Acetonitrile 50:50). For intact protein mass measurement the instrument was set in Linear mode using a pulsed extraction setting of 24,500 and apomyoglobin as the standard to calibrate the instrument.
Mass spectrometric analysis of HCV NS3/4A genotypes 1a, 1b, 2a, and 3a in the presence of test compound I-96 was performed using the following protocol: HCV NS3/4A was incubated for 3 hr at a 10× fold access of test compound to protein. […]

Where [5] appears, read: read-out: Inhibition, HCV A156T, A156T enzyme, FRET assay.

As for `C=CC(=O)NC[C@H](NC(=O)OC(C)(C)C)C(=O)N1C[C@H](Oc2cc(-c3ccccc3)nc3cc(OC)ccc23)C[C@H]1C(=O)N[C@]1(C(=O)NS(=O)(=O)c2ccccc2)C[C@H]1C=C` [Compound I-3, N-[(1,1-dimethylethoxy)carbonyl]-3-[(2-propenoyl)amino]-L-alanyl-(4R)-4-[(7-methoxy-2-phenyl-4-quinolinyl)oxy]-L-prolyl-1-amino-2-ethenyl-N-(phenylsulfonyl)-(1R,2S)-cyclopropanecarboxamide], the IC50 is 0.018 µM in test [1] (read-out: Comparative IC50 Values, A156T, biochemical assay); 0.01 to 0.1 µM in test [1] (setting [5]); 0.01 to 0.1 µM in test [2] (Enzyme/Assay: Biochemical; read-out: Inhibition, Biochemical); below 0.01 µM in test [3].
With `C=C[C@@H]1C[C@]1(NC(=O)[C@@H]1C[C@@H](Oc2cc(-c3ccccc3)nc3cc(OC)ccc23)CN1C(=O)[C@H](CNC(=O)CCl)NC(=O)OC(C)(C)C)C(=O)NS(=O)(=O)c1ccccc1` [Compound I-7, N-[(1,1-dimethylethoxy)carbonyl]-3-[(chloroacetyl)amino]-L-alanyl-(4R)-4-[(7-methoxy-2-phenyl-4-quinolinyl)oxy]-L-prolyl-1-amino-2-ethenyl-N-(phenylsulfonyl)-(1R,2S)-cyclopropanecarboxamide], the IC50 in test [1] (setting [5]) is 0.01 to 0.1 µM; in test [2] (read-out: Inhibition, Biochemical; Enzyme/Assay: Biochemical) it was 0.01 to 0.1 µM; in test [3] it was below 0.01 µM.
As to `C=CC(=O)NCC(=O)N1C[C@H](Oc2cc(-c3ccccc3)nc3cc(OC)ccc23)C[C@H]1C(=O)N[C@]1(C(=O)NS(=O)(=O)c2ccccc2)C[C@H]1C=C` [Compound I-27, (2S,4R)-1-(2-acrylamidoacetyl)-4-(7-methoxy-2-phenylquinolin-4-yloxy)-N-((1R,2S)-1-(phenylsulfonylcarbamoyl)-2-vinylcyclopropyl)pyrrolidine-2-carboxamide], the IC50 is 0.01 to 0.1 µM in test [1] (setting [5]) and below 0.01 µM in test [3]. The “Covalent modification of HCV wild type by mass spectrometry” value in test [4] is “near complete covalent modification”.
